Data set [1] deals with Histone H2AX (γH2AX). The experiment in a line: γH2AX formation in human fibroblasts by immunofluorescent microscopy. Format: cell-based. The following applies: 48 hours. The protocol: Phosphorylation of Histone H2AX (forming γH2AX) is a marker for DNA damage in many settings and is also observed at telomeres when cells enter senescence. […] In both experiments, cells were incubated for 48 hours in the presence of SPOX-1 or 11mer T-oligo before processing for immunofluorescent microscopy.

Data set [2] has as its system ataxia telanglectasia mutated (ATM) kinase. The experiment in a line: phosphorylation of ATM at serine 1981 in MM-AN cells, Western blot. The following applies: 40 μM, 48 hours. Format: cell-based, human. How it is done:
Phosphorylated ATM in turn phosphorylates, and thus activates, p53. MM-AN cells were treated with diluent (medium or DMSO) alone, 40 μM of […] or 40 μM of SPOX-2 for 48 hours then collected and analyzed by Western blot using an antibody against ATM phosphoserine 1981.
Background: In western blotting, separated proteins are transferred to a membrane and probed.

Data set [3] relates to WRN− U20S human osteosarcoma cells. The data set is described as follows: apoptosis of WRN− U20S cells by FACS analysis. It is filed as cell-based. The conditions noted are these: 96 hours; 20 μM. The protocol: Cultures of WRN+ and WRN− U20S human osteosarcoma cells were treated with either diluent (water or DMSO) alone, 16mer T-oligo (SEQ ID NO: 2) or SPOX-1 for 96 hours, then collected and processed for FACS analysis. One concentration of the 16mer T-oligo was tested, 20 μM, and three concentrations of SPOX-1 were tested, 10 μM, 40 μM and 80 μM.

For the next data set, the system named is human fibroblasts. The experiment in a line: growth of newborn fibroblast cells. Format: cell-based. The following applies: 40 μM; growth determined 2 and 4 days after plating. The protocol:
The effect of SPOX compounds on growth of human fibroblasts was tested using cultures of newborn fibroblast cells. Briefly, 20,000 cells were plated per 35 mm dish. Medium containing either diluent (dimethyl sulfoxide (DMSO)) alone, SPOX-1 (40 μM) SPOX-2 (40 μM) or 11mer T-oligo (SEQ ID NO:1) was introduced at 96 hours and growth was determined 2 and 4 days after plating.

In data set [4] the test system is MM-AN human melanoma cells. The experiment in a line: apoptosis of MM-AN melanoma cells by FACS analysis (propidium iodide). The conditions noted are these: 10 μM, 40 μM and 80 μM. Format: cell-based. The protocol:
Cultures of MM-AN human melanoma cells were treated with diluent (water or DMSO) alone, a T-oligo (16mer: 5′ GTTAGGGTTAGGGTTA 3′; SEQ ID NO: 2), SPOX-1, or SPOX-2 for 96 hours, then collected and processed for FACS analysis. One concentration of the T-oligo (20 μM) and three concentrations of each SPOX compound (10 μM, 40 μM and 80 μM) were tested. Each bar is the mean of triplicate dishes +/− standard error of the mean (SEM). FACS profiles are depicted at the top of the figure.
Cultures of MM-AN human melanoma cells were treated with diluent (water or DMSO) alone, 16mer T-oligo (SEQ ID NO: 2), SPOX-337, SPOX-338 or SPOX-343 for 72 hours, then collected and processed for FACS analysis. One concentration of the T-oligo (20 μM) and three concentrations of each SPOX compound (10 μM, 40 μM and 80 μM) were tested.
In general terms: In flow cytometry, cells or beads pass a laser one at a time.

The subject of data set [5] is MM-AN human melanoma cells. The experiment in a line: growth of MM-AN melanoma cells. The conditions noted are these: 40 μM; 2, 3 and 4 days after treatment. Format: cell-based. How it is done: The effect of SPOX compounds on growth of human melanoma cells was tested using cultures of MM-AN cells. Briefly, 20,000 MM-AN cells were plated per 35 mm dish. Medium containing either diluent (DMSO) alone, SPOX-1 or SPOX-2 (40 μM) was introduced at 96 hours and growth was determined 2, 3 and 4 days after treatment.

Another data set concerns MCF-7 cells. The data set is described as follows: growth of MCF-7 breast cancer cells. Format: cell-based, human. The conditions noted are these: for growth of MCF-7 cells: 10 μM; for growth of MCF-7 cells at highest concentration: 80 μM, 3 days after plating; for growth arrest of malignant cells: summary statement. The protocol: The effect of SPOX compounds on growth and apoptosis of human breast cancer cells was tested using cultures of MCF-7 cells. The effect on cell growth was tested by plating 20,000 cells per 35 mm dish. Medium containing either diluent alone (DMSO), SPOX-1 or SPOX-2 (10 μM, 40 μM and 80 μM) was introduced at 96 hours and growth was determined 8 days after plating.
The effect of SPOX compounds on growth of human breast cancer cells was tested using cultures of MCF-7 cells. The effect on cell growth was tested by plating 20,000 cells per 35 mm dish. Medium containing either diluent (water or DMSO) alone, SPOX-337, SPOX-388, SPOX-343 (10 μM, 40 μM and 80 μM) or 16mer T-oligo (SEQ ID NO: 2) was introduced at 96 hours and growth was determined 3 days after plating.

Data set [6] relates to Histone H2AX (γH2AX). The data set is described as follows: γH2AX formation in MCF-7 cells, western blot. It is filed as cell-based, human. The conditions noted are these: compared with 16mer T-oligo. The protocol:
(§1) Phosphorylation of Histone H2AX (forming γH2AX) was assessed as a marker for DNA damage. Apoptosis was measured by western blot analysis to show cleavage of poly(ADP-ribose) polymerase (PARP). PARP is a substrate for caspase-3, an enzyme that mediates apoptosis, and thus cleavage of PARP by caspase-3 is indicative of ongoing apoptosis. […] Thus, both SPOX compounds induce apoptosis and formation of γH2AX, as a marker of DNA damage-like responses, in the MCF-7 breast cancer cell line.

The test system of data set [7] is poly(ADP-ribose) polymerase (PARP). The data set is described as follows: PARP cleavage in MCF-7 cells, western blot. It is filed as cell-based, human. The following applies: compared with TNF-α. The protocol:
as §1

The subject of another data set is human skin explants. The data set is described as follows: melanogenesis in human skin explants (Fontana Masson stain, image analysis). Format: cell-based. The following applies: 80 uM; 24, 48 and 72 hours; positive control pTT 100 uM. The protocol: Normal facial skin removed from a person at the time of facelift was carefully cut into fragments approximately 5×5 mm. The fragments were placed in tissue culture dishes in standard culture medium, under conditions known to maintain the fragments in good condition, responsive to physiologic stimuli, for at least one week (Arad et al, FASEB J. Jul. 28, 2006. [Epub]). Fragments were arranged with at least 3 per 35 mm dish and after 48 hours, one dish each was provided with fresh medium containing diluent (DMSO) alone (Dil) or SPOX-1 or SPOX-2 each at 80 uM or thymidine dinucleotide (pTT) at 100 uM as a positive control. […] The 72 hour diluent (Dil) control sample was judged to be bacterially contaminated, affecting both the overall histology and the apparent melanin content, which based on earlier experiments would be expected to be the same as at 24 and 48 hours. All other samples were believed to be healthy and to accurately represent the response to treatment.

The next data set deals with survivin. The data set is described as follows: survivin expression in H460 lung cancer cells. It is filed as cell-based, human. How it is done:
The ability of the SPOX compounds to inhibit expression of survivin, a member of the Inhibitor of Apoptosis Protein (IAP) family, was determined by treating H460 human lung cancer cells for two days with diluent (DMSO) alone, SPOX-1 (20 μM, 40 μM), SPOX-2 (20 μM, 40 μM) and T-oligo (16mer: 5′ GGTTGGTTGGTTGGTT 3′; SEQ ID NO: 3) (20 μM, 40 μM) or for 24 hours with SPOX-1 (80 μM) or SPOX-2 (80 μM). Following treatment, cells were collected, counted, and assayed for survivin expression. The results are depicted in FIG. 15.

Data set [8] relates to H460 human lung cancer cells. The data set is described as follows: growth of H460 lung cancer cells. Format: cell-based. The following applies: 40 μM; 1, 2, 3 and 4 days after plating. The protocol:
The effect of SPOX compounds on growth of human lung cancer cells was tested using cultures of H460 cells. Briefly, 20,000H460 cells were plated per 35 mm dish. Medium containing either diluent (DMSO) alone, SPOX-1 or SPOX-2 (40 μM) was introduced at 96 hours and growth was determined 1, 2, 3 and 4 days after plating.

Another data set concerns p53. The data set is described as follows: p53 level in human fibroblasts, Western blot. It is filed as cell-based. The conditions noted are these: 48 hours, compared with diluent alone. How it is done: (§2) Human fibroblasts were treated with diluent (water or DMSO) alone, SPOX-1, SPOX-2, or 16mer T-oligo (SEQ ID NO: 2) for 48 hours after which total cellular proteins were harvested and Western blot analysis performed using anti-p53 and anti-p21 antibodies.

For the next data set, the system named is p21. The data set is described as follows: p21 level in human fibroblasts, Western blot. Format: cell-based. The conditions noted are these: 48 hours, compared with diluent alone. The protocol: as §2
Setting [9] is: 40 μM and 80 μM, growth determined 3 days after plating.

The values that follow come from patent publication US20100093716A1, “THERAPEUTIC METHODS USING WRN BINDING MOLECULES” (TRUSTEES OF BOSTON UNIVERSITY AND PRESIDENT AND FELLOWS OF …, priority 2006, published 2010).

As to “11mer T-oligo: telomere homolog oligonucleotide, 11mer: 5′ GTTAGGGTTAG 3′; SEQ ID NO: 1 (listed as DNA, further chemistry not given here) [reference compound]”, the γH2AX expression entry with Histone H2AX (γH2AX) [1] was “induce γH2AX expression”. In addition, the “phosphorylation of ATM at serine 1981” value in data set [2] is reported as “induce phosphorylation of ATM”.
For “16mer T-oligo (SEQ ID NO: 2): telomere homolog oligonucleotide, 16mer: 5′ GTTAGGGTTAGGGTTA 3′; SEQ ID NO: 2 (listed as DNA, further chemistry not given here) [reference compound]”, in data set [3], the “induction of apoptosis in WRN− versus WRN+ U20S cells” value was “less effective in inducing apoptosis in WRN− than in U20S cells with intact WRN”.
Turning to `C=CCOC(=O)C1C2C(=O)OC(c3ccccc3)C(c3ccccc3)N2C(c2ccc(O)cc2)C12C(=O)Nc1ccc(I)cc12` (stereo not drawn) [SPOX-2], the “growth of human fibroblast cells” value in the data set with human fibroblasts was “inhibited growth”. Further, in data set [4] (96 hours), the induction of apoptosis result was “induced apoptosis”. Also, the “growth of MM-AN cells” value in data set [5] is recorded as “inhibited growth”. Also, the “phosphorylation of ATM at serine 1981” value in data set [2] is given as “induce phosphorylation of ATM”. Besides, the “growth of MCF-7 cells” value with MCF-7 cells (40 μM and 80 μM, growth determined 8 days after plating) is “inhibited growth of MCF-7 cells in a dose-dependent manner”. Further, the “growth of MCF-7 cells at higher concentrations” value in the data set with MCF-7 cells (40 μM and 80 μM, 8 days after plating) was “nearly complete inhibition of growth”. For the same compound, the “phosphorylation of histone H2AX (γH2AX)” value with Histone H2AX (γH2AX) [6] is reported as “cause phosphorylation of the histone protein H2AX”. Besides, the PARP cleavage result in [7] is “cause PARP cleavage”. The “melanogenesis (tanning) in human skin” value in the data set on human skin explants is listed as “caused tanning, comparable to pTT”. Besides, in the data set on survivin (24 hours, 80 μM), the “survivin expression at 80 μM” value is reported as “reduced survivin expression to nearly undetectable levels”. Also, in the data set on survivin (2 days, 20 μM, 40 μM), the survivin expression result is “dose-dependent reduction in survivin expression”. The “survivin expression at 40 μM” value in the data set on survivin (2 days, 40 μM) is reported as “nearly undetectable”. The “growth of H460 cells” value in [8] is given as “inhibited growth”. The “level of p53” value with p53 was “induced the level of p53”. The “level of p21” value in the data set with p21 was “induced the level of the p53-dependent downstream effector protein p21 to a similar degree as 16mer T-oligo”.
Take `C=CCOC(=O)C1C2C(=O)OC(c3ccccc3)C(c3ccccc3)N2C(c2ccc(OCCO)cc2)C12C(=O)Nc1ccc(I)cc12` (stereo not drawn) [SPOX-337]: the induction of apoptosis entry in [4] (72 hours) was “induced apoptosis with SPOX-337 and SPOX-343 having greatest effect”. Further, the “growth of MCF-7 cells” value in the data set on MCF-7 cells (setting [9]) is “inhibited growth of MCF-7 cells in a dose-dependent manner”. Moreover, in the data set with MCF-7 cells, the “growth of MCF-7 cells at highest concentration” value was “nearly complete inhibition of growth” and the “growth arrest of malignant cells” value was “retain the capability of arresting the growth of malignant cells”.
For `C=CCOC(=O)C1C2C(=O)OC(c3ccccc3)C(c3ccccc3)N2C(c2ccc(OCCO)cc2)C12C(=O)Nc1ccccc12` (stereo not drawn) [SPOX-338], in data set [4] (72 hours), the induction of apoptosis entry is listed as “induced apoptosis”. In addition, the “growth of MCF-7 cells” value with MCF-7 cells (setting [9]) is “inhibited growth of MCF-7 cells in a dose-dependent manner”. In the data set with MCF-7 cells, the “growth of MCF-7 cells at highest concentration” value was “nearly complete inhibition of growth” and the “growth arrest of malignant cells” value is “retain the capability of arresting the growth of malignant cells”.
With `C=CCOC(=O)C1C2C(=O)OC(c3ccccc3)C(c3ccccc3)N2C(c2ccc(O)cc2)C12C(=O)Nc1ccccc12` (stereo not drawn) [SPOX-343], in [4] (72 hours), the induction of apoptosis entry was “induced apoptosis with SPOX-337 and SPOX-343 having greatest effect”. Besides, the “growth of MCF-7 cells” value with MCF-7 cells (setting [9]) was “inhibited growth of MCF-7 cells in a dose-dependent manner”. For the same compound, in the data set with MCF-7 cells, the “growth of MCF-7 cells at highest concentration” value is “nearly complete inhibition of growth” and the “growth arrest of malignant cells” value was “retain the capability of arresting the growth of malignant cells”.
